The target of experiment [1] is T1, human CRTH2 (Homo sapiens, UniProt Q9Y5Y4).
T1 construct: expressed in transfected cells; host or cells: HEK293 cells, stably transfected; membrane preparation
T1 sequence (Q9Y5Y4 1-395): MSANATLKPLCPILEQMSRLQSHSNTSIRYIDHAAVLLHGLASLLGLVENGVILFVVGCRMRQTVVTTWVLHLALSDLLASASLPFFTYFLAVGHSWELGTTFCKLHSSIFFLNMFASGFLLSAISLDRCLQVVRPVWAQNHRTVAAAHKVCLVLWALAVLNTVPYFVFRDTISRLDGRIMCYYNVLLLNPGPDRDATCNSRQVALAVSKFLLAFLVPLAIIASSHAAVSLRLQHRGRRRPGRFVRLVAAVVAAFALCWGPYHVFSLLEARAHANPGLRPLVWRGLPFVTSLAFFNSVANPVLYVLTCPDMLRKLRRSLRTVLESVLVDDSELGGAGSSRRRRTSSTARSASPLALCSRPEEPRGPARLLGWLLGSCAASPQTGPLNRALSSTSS
Description: Human CRTH2 binding assay (3H-labeled PGD2 binding, membranes of HEK293 cells transfected with human CRTH2). The settings on record: membrane preparation of HEK293 cells with human CRTH2; 2 nM 3H-labeled PGD2; 4° C., 120 minutes; read-out: IC50 (nM), in vitro human CRTH2 binding assay. Here is the method: Human CRTH2 Binding Assay
To evaluate CRTH2 binding activities of example compounds, PGD2 binding assay was performed as modifications of former paper (Journal of pharmacology and experimental therapeutics, 2003, 306(2), pp. 463-470).
HEK293 cells stably transfected with human CRTH2 cDNA were suspended in assay buffer (10 mM BES, 1 mM EDTA, 10 mM MnCl2, pH=7.0) and broken into pieces by strong mixture using injection needle. The membrane preparation at the concentration of 50 μg protein was mixed with various concentrations of compounds. Binding reaction was initiated by an addition of ^3H-labeled PGD2 to a final concentration of 2 nM and the reaction mixture was incubated at 4° C. for 120 minutes. The reaction was terminated by filtration using GF/B plate (PerkinElmer) which was washed with wash buffer (10 mM BES, 0.01% BSA). ^3H-labeled PGD2 which binds to CRTH2 were captured on this plate and the radioactivity was measured. The total and non-specific binding were determined in the absence and presence of 10 μM DK-PGD2. The binding activity of each compound was expressed as IC50 value.

For experiment [2], the system named is Guinea Pig antigen-induced hyper-responsiveness. Description: Guinea Pig antigen-induced hyper-responsiveness model. The class given is in vivo. The settings on record: OVA-sensitized male Hartley guinea pigs, AUC of peak inflation pressure versus methacholine dose. As to the method:
Guinea Pig Antigen-Induced Hyper-Responsiveness Model
To evaluate anti asthma efficacy of the compounds, they were administered to Guinea Pig antigen-induced hyper-responsiveness model which is cited in the literature with minor modifications (Agents Actions, 1992, 37, pp. 162-164).
Male Hartley guinea pigs were actively sensitized to ovalbumin (OVA) by i.p. injection of 20 mg in 0.9% saline at day 0 and 1 mg at day 2. Animals were exposed for 10 minutes on days 14-21 to an aerosol of 0.5% OVA solution in 0.9% saline or saline alone generated from a nebulizer. All animals were treated with compound by p.o. administration 60 minutes prior to the aerosol and 1 mg/kg pyrilamine by i.p. injection 30 minutes prior to the aerosol. On day 22, animal was anesthetized with urethane (1.5 g/kg). The trachea was cannulated and the animal was mechanically ventilated (60 strokes/minute; 1 mL/100 g body weight) with a small animal respirator. Pulmonary inflation pressure (PIP) was monitored with a pressure transducer. Doses of methacholine (0-14 μg/kg) were administered sequentially (3 minutes intervals) by the right jugular vein to each animal. The area under the peak inflation pressure versus methacholine dose curve (AUC) was calculated for each animal.

Experimental findings from patent publication US8273745B2, “Polycyclic acid compounds useful as CRTH2 antagonists and antiallergic agents” (Astellas Pharma Inc, priority 2006, dated 2012) are described below.

In the case of `O=C(O)Cn1ccc2c(CCCn3cc(C(c4ccccc4)c4ccccc4)ccc3=O)cccc21` [Example 4, (4-{3-[5-(diphenylmethyl)-2-oxopyridin-1(2H)-yl]propyl}-1H-indol-1-yl)acetic acid], the IC50 (usually the midpoint of a concentration-inhibition curve) in experiment [1] worked out at 3.6 nM.

On to `O=C(O)COc1cccc(CCCn2cc(C(c3ccccc3)c3ccccc3)ccc2=O)c1` [Example 10, (3-{3-[5-(diphenylmethyl)-2-oxopyridin-1(2H)-yl]propyl}phenoxy)acetic acid], for which the “inhibition (%)” value in experiment [2] (dose 10 mg/kg p.o.) is 100%. Also, the IC50 in experiment [1] worked out at 42 nM.

As to `C[C@H](Oc1cccc(CCCn2nc(C(c3ccccc3)c3ccccc3)ccc2=O)c1)C(=O)O` [Example 59, (2S)-2-(3-{3-[3-(Diphenylmethyl)-6-oxopyridazin-1(6H)-yl]propyl}phenoxy)propanoic acid], the “inhibition (%)” value in experiment [2] (dose 3 mg/kg p.o.) is listed as 93%. The IC50 in experiment [1] was determined as 13 nM.

Regarding `O=C(O)CCCOc1cccc(CCCn2nc(C(c3ccccc3)c3ccccc3)ccc2=O)c1` [Example 69, 4-(3-{3-[3-(Diphenylmethyl)-6-oxopyridazin-1(6H)-yl]propyl}phenoxy)butanoic acid], the IC50 in experiment [1] is 14 nM.

For `O=C(O)COc1cccc(CCCN2C(=O)OC[C@@H]2C(c2ccccc2)c2ccccc2)c1` [Example 72, (3-{3-[(4S)-4-(Diphenylmethyl)-2-oxo-1,3-oxazolidin-3-yl]propyl}phenoxy)acetic acid], the IC50 in experiment [1] was found to be 5.5 nM.

On to `O=C(O)CCCOc1cccc(SCCn2cc(C(c3ccccc3)c3ccccc3)ccc2=O)c1` [Example 84, 4-[3-({2-[5-(Diphenylmethyl)-2-oxopyridin-1(2H)-yl]ethyl}sulfanyl)phenoxy]butanoic acid], for which the “inhibition (%)” value in experiment [2] (dose 3 mg/kg p.o.) is listed as 100%. Moreover, in experiment [1], the IC50 worked out at 8.1 nM.

In the case of `NS(=O)(=O)c1cccc(C(=O)N(CCCc2cccc(OCC(=O)O)c2)CCC(c2ccccc2)c2ccccc2)c1` [Example 99, [3-(3-{[3-(Aminosulfonyl)benzoyl](3,3-diphenylpropyl)amino}propyl)phenoxy]acetic acid], the IC50 in experiment [1] stood at 4.8 nM.

Regarding `O=C(O)CCCOc1cccc(CCCn2nc(C(c3ccc(F)cc3)c3ccc(F)cc3)ccc2=O)c1` [Example 111, 4-[3-(3-{3-[Bis(4-fluorophenyl)methyl]-6-oxopyridazin-1(6H)-yl}propyl)phenoxy]butanoic acid], in experiment [2] (dose 3 mg/kg p.o.), the “inhibition (%)” value worked out at 89%. In addition, in experiment [1], the IC50 was 18 nM.

With `O=C(O)CCCOc1cccc(CCCn2cc(C(c3ccc(F)cc3)c3ccc(F)cc3)ccc2=O)c1` [Example 112, 4-[3-(3-{5-[Bis(4-fluorophenyl)methyl]-2-oxopyridin-1(2H)-yl}propyl)phenoxy]butanoic acid], the “inhibition (%)” value in experiment [2] (dose 1 mg/kg p.o.) is given as 60%. Besides, the IC50 in experiment [1] is 24 nM.

Consider `O=C(O)COc1cccc(CCCn2cc(-c3ccccc3-c3cccc4ccccc34)ccc2=O)c1` [Example 123, [3-(3-{5-[2-(1-Naphthyl)phenyl]-2-oxopyridin-1(2H)-yl}propyl)phenoxy]acetic acid], for which, in experiment [1], the IC50 stood at 7.6 nM.
